The results in this text go back to ChEMBL document CHEMBL1133517, “Design, radiosynthesis, and biodistribution of a new potent and selective ligand for in vivo imaging of the adenosine A(2A) receptor system using positron emission tomography” (J Med Chem, 2000).

In test [1] the target is T1, Adenosine receptor A3 (Homo sapiens, UniProt P0DMS8).
T1 sequence (P0DMS8 whole entry): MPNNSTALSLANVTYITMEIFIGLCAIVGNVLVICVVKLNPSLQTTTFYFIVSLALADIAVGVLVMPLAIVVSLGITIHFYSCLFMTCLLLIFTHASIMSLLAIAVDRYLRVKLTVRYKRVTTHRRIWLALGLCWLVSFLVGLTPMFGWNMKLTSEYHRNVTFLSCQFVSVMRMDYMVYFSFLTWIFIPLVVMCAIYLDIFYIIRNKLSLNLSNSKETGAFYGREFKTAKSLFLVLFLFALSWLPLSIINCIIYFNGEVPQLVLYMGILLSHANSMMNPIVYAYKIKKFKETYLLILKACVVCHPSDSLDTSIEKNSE
Description: Displacement of [125I]AB-MECA from human adenosine A3 receptor expressed in HEK293 cells. Format: cell-based. (In general: Loss of bound radioactivity is the signal in a displacement assay; it reports binding, not function.)

For test [2], the target named is T2, Adenosine receptor A1 (Rattus norvegicus, UniProt P25099).
T2 sequence (P25099 whole entry): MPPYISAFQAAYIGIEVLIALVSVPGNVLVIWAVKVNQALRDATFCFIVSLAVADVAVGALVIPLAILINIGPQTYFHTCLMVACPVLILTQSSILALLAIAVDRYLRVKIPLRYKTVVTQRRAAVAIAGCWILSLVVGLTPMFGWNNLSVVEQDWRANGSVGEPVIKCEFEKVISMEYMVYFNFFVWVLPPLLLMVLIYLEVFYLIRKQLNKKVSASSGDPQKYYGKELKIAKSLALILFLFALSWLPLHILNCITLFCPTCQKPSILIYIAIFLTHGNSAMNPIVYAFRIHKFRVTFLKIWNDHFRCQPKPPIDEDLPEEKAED
Description: Displacement of [3H]DPCPX from adenosine A1 receptor in rat brain membranes. In kind it is cell membranes.

For test [3], the target named is T3, Adenosine receptor A3 (Rattus norvegicus, UniProt P28647).
T3 sequence (P28647 whole entry): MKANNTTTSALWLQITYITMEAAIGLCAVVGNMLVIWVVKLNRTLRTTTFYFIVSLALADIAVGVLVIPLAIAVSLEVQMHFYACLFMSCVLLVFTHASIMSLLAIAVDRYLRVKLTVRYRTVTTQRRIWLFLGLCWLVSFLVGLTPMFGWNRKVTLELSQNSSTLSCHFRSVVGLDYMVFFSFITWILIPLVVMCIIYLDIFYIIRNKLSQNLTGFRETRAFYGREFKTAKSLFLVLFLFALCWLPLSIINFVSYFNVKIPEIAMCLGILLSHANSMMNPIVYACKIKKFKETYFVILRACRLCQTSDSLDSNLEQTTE
As to the kind of experiment: Inhibitory activity against rat adenosine A3 receptor expressed in HEK293 cells by displacement of [125I]AB-MECA. In kind it is cell-based.

The target of test [4] is T4, Adenosine receptor A2b (Homo sapiens, UniProt P29275).
T4 sequence (P29275 whole entry): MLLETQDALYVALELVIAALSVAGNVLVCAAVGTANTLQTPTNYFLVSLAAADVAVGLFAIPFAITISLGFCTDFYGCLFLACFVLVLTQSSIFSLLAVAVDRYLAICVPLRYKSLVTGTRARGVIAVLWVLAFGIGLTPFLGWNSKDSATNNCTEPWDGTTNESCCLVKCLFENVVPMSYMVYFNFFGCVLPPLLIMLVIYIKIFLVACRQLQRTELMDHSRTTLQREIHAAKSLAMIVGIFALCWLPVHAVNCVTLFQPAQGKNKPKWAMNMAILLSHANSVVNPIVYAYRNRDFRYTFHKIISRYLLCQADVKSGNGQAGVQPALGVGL
As to the kind of experiment: Inhibitory activity against human adenosine A2B receptor expressed in HEK293 cells by displacement of [3H]DPCPX. Format: cell-based.

Test [5] concerns the target T5, Adenosine receptor A1 (Homo sapiens, UniProt P30542).
T5 sequence (P30542 whole entry): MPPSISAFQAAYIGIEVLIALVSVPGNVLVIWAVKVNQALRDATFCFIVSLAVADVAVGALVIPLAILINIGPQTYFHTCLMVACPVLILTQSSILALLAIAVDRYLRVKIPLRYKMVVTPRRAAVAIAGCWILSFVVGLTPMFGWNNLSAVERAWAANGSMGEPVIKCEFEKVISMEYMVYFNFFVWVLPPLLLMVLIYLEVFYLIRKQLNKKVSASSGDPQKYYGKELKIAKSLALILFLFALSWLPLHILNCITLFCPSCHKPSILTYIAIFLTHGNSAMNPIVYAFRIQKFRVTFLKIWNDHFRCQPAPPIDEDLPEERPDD
Description: Inhibitory activity against human adenosine A1 receptor expressed in CHO cells by displacement of [3H]DPCPX. Format: cell-based.

Structures are written as SMILES. A value given as a limit tells only on which side of the number the result lay.

Broadly, the Ki is a dissociation constant, usually derived from enzyme kinetics or from competition with a known ligand. Read a low Ki as tighter binding. `COc1ccc(CCCn2ncc3c2nc(N)n2nc(-c4ccco4)nc32)cc1`: the Ki in test [1] is > 10000 nM; in test [2] it was 1810 nM; in test [3], > 10000 nM; in test [4], > 10000 nM; in test [5], 1110 nM.
